According to patent US12527833B2, “Pharmaceutical composition made from hydrophobic phytochemicals dispersed in sesame oil to enhance bioactivity” (ARJUNA NATURAL PVT. LTD., priority 2017, dated 2026):

Tested on: Acute Musculoskeletal Pain
Experiment: Randomized active controlled study of BSC-4 in adult patients with acute musculoskeletal pain (NRS, PRS, PPR, MPR, PGIC)
Type: in vivo, human
From the text: A Randomized Active Controlled Study to Assess the Efficacy of Sesame Oil Loaded with Boswellia Extract and Curcuminoid Composition (BSC-4) in Adult Patients with Acute Musculoskeletal Pain. Sample size for the study: 88 Subjects were randomized with 1:1 ratio of male and female in each group. Subject selection—Subjects were selected from the screening site who were ready to give a voluntary informed consent and who meets study inclusion criteria. • 1. Adult patient, Male or female between 18-65 years of age. • 2. A score of 5 or above on the Numerical Rating Scale. • 3. Patients having acute musculoskeletal pain which occurred within 24 hours before presentation e.g. headache musculoskeletal injuries, myalgia, neck pain, limb pain, low back pain, joint pain, widespread musculoskeletal pain, painful uncomplicated acute soft tissue injury of the upper or lower extremity, including acute injuries of ligaments, tendons, or muscles (including Grade 1), not requiring admittance to hospital. • 4. Willing to give voluntary informed consent. Visit 1, randomization; subject were provided BSC-4 or Paracetamol as per the pre-documented randomization list accessed only by pharmacist. Patients were entering the NRS, PRS, and PGIC in the diary before and after 2 hour of taking the dose. Follow up calls were made over phone for patents compliance to treatment, diary completion. The follow up on day 3 the patient were reminded to bring the diary for review and bottle for IP accountability at the next visit. Visit 2, Physical examination, vitals, and patient diary were checked. Post dose (2 hours) pain intensity using NRS, pain relief using categorical PRS, and patient's global impression of change (PGIC) were recoded. Visit 3, next visit on 6th day from the visit 1, Patients entered the NRS, PRS, and PGIC in the diary before and after 2 hrs of taking the dose. Follow up calls were made over phone for their compliance to treatment, diary completion. The follow up on day 6 the patient were reminded to bring the diary for review and bottle for IP accountability at the next visit. Physical examination, vitals, and patient diary were checked. Post dose (2 hours) pain intensity using NRS, pain relief using categorical PRS, and patient's global impression of change (PGIC) were recorded. The NRS is an 11-point scales in which 0 represents ‘no pain’ and 10 represents the worst pain possible. The patient were asked to rate their pain intensity as a number from 0 to 10. Alternatively, for better conception it may be explained as below. The NRS were recorded on screening and those patients who have 5 or above score only were enrolled into the study. After the first dose the patient were give the pain intensity rating every 30 minutes up to 6 hours post dose for calculating SPID 6 hrs. The NRS was included in the diary and the patient was required to give the pain intensity every morning before taking the dose and 2 hrs after dose until the end of the study. The average of the recorded data is provided in a graphical form in FIG. 7 (b). The average percentage change of patents when they visited the centre on day 3 and day 7 is provided below. The pain relief scale is a categorical scale having a positive progression from ‘No relief’ to ‘complete relief’. After the first dose the patient rated the pain relief every 30 minutes up to 6 hours for the assessment of Total pain relief 6 hours. The average pain relief score for the 6 hours test was recorded and represented in graphical form in FIG. 8 (a). The pain relief scale was included in the diary and the patient was required to give the pain relief every morning before taking the dose and 2 hours after dose until the end of the study. The average pain relief score for the seven days test was recorded in diary and represented in graphical form in FIG. 8 (b). After dosing the two stop watches were given to the patient. The patient had to stop one of the watches when they felt relief from pain. […]

SMILES: CC(=O)Nc1ccc(O)cc1 [Paracetamol]
- NRS score in six hours (FIG. 7(a), 0-10 scale, baseline around 6): 2
- NRS score by the end of 7th day (FIG. 7(b), 0-10 scale, baseline close to 6): ~1
- PRS score in six hours (FIG. 8(a), scale 1 No Relief to 5 Complete Relief, baseline around 1): 3
- PRS score by the end of 7th day (FIG. 8(b), scale 1-5, baseline close to 1): ~3
- Percentage change in pain intensity at 6 hours (NRS, 6 hours after first dose): 72.1%
- Percentage change in pain intensity in 7 days, day 3 (NRS, day 3): 24.8%
- Percentage change in pain intensity in 7 days, day 7 (NRS, day 7): 83.62%
- Percentage change in pain relief at 6 hours (PRS, 6 hours after first dose, threshold reached by the n patients in the same cell): > 75%
- Number of patients (n) with the stated percentage change in pain relief at 6 hours (PRS, 6 hours, of n = 44 per group, >75% change): 30
- Number of patients (n) with the stated percentage change in pain relief, Day 3 (PRS, Day 3, of n = 44 per group, >50% change): 20
- Percentage change in pain relief, Day 3 (PRS, Day 3, threshold reached by the n patients in the same cell): > 50%
- Number of patients (n) with the stated percentage change in pain relief, Day 7 (PRS, Day 7, of n = 44 per group, >75% change): 37
- Percentage change in pain relief, Day 7 (PRS, Day 7, threshold reached by the n patients in the same cell): > 75%
- Meaningful pain relief (average time to meaningful pain relief (MPR), censored at 6 hours): 4.51 h
- Perceptible pain relief (average time to perceptible pain relief (PPR), stop watch): 2.62 h
- PGIC score, Day 2 (scale 1 Very Much Improved to 7 Very Much Worse, Day 2): 3
- PGIC score, Day 3 (scale 1 Very Much Improved to 7 Very Much Worse, Day 3): 3
- PGIC score, Day 4 (scale 1 Very Much Improved to 7 Very Much Worse, Day 4): 3
- PGIC score, Day 5 (scale 1 Very Much Improved to 7 Very Much Worse, Day 5): 3
- PGIC score, Day 6 (scale 1 Very Much Improved to 7 Very Much Worse, Day 6): 3
- PGIC score, Day 7 (scale 1 Very Much Improved to 7 Very Much Worse, Day 7): 2
